Results as given in publication PMC6298744 (Biochemical pharmacology, 2018).
Counter-ions that a name gives are not always drawn. Like-named read-outs stand apart in the source and are kept apart here.

Key:
hNET [1] = molecular target: T1, hNET (Homo sapiens, UniProt P23975); experiment: biochemical; assay type: binding
hDAT [2] = molecular target: T2, hDAT (Homo sapiens, UniProt Q01959); experiment: Inhibition of [^125I]RTI-55 binding to hDAT
5-HT2A receptor [3] = molecular target: T3, 5-HT2A receptor (Homo sapiens, UniProt P28223); experiment: cell-based; assay type: cell-based; conditions: for Selectivity (functional ratios) 5-HT2A: 5-HT1A / Selectivity (functional ratios) 5-HT2A: 5-HT2B / Selectivity (functional ratios) 5-HT2A: 5-HT2C: ratio of EC50 values; for EC50: mean ± sem; for Emax: read-out: % maximum stimulation, 5-HT2A stimulation of IP-1 formation
human 5-HT1A receptor [4] = molecular target: T4, human 5-HT1A receptor (Homo sapiens, UniProt P08908); experiment: 5-HT1A receptor [^3H]8-OH-DPAT radioligand binding
T4 sequence (P08908 1-422): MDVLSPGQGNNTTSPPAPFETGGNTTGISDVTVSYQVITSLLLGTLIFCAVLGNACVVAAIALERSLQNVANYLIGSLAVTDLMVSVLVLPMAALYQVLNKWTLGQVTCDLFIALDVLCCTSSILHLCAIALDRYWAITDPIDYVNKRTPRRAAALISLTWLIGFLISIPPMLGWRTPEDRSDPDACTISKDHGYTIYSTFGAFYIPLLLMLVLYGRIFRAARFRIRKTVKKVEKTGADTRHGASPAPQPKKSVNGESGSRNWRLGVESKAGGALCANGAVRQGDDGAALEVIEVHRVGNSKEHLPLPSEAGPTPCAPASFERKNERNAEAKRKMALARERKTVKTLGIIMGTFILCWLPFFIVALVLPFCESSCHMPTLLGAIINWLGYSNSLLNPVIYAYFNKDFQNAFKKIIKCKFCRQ

human 5-HT1A receptor [5] = molecular target: T4, human 5-HT1A receptor; experiment: 5-HT1A receptor [^35S]GTPγS binding stimulation; assay type: biochemical; conditions: for Emax: read-out: % maximum stimulation, 5-HT1A stimulation of [^35S]GTPγS binding
hNET [6] = molecular target: T1, hNET; experiment: Release of preloaded [^3H]NE from HEK-hNET cells; assay type: cell-based; conditions: for % maximum release, hNET [^3H]NE: relative to maximum release induced by METH (0.3–1 μM)
5-HT2B receptor [7] = molecular target: T5, 5-HT2B receptor (Homo sapiens, UniProt P41595); experiment: 5-HT2B receptor inositol monophosphate; assay type: cell-based; conditions: for Emax: read-out: % maximum stimulation, 5-HT2B stimulation of IP-1 formation
hSERT [8] = molecular target: T6, hSERT (Homo sapiens, UniProt P31645); experiment: Inhibition of [^125I]RTI-55 binding to hSERT
5-HT2C receptor = molecular target: T7, 5-HT2C receptor (Homo sapiens, UniProt P28335); experiment: cell-based; conditions: for Emax: read-out: % maximum stimulation, 5-HT2C stimulation of IP-1 formation
T7 sequence (P28335 33-458): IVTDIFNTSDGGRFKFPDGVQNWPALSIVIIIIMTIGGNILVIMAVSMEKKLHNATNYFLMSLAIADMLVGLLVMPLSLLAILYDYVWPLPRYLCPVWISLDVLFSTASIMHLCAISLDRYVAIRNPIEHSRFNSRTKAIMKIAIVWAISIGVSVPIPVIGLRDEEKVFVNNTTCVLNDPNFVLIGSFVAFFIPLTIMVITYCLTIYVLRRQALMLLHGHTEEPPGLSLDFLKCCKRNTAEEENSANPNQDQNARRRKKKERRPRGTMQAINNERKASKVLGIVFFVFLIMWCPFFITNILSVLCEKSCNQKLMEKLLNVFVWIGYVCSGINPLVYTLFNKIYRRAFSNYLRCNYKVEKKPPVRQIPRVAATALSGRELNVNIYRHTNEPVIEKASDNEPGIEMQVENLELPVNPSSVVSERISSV

5-HT2A receptor [9] = molecular target: T3, 5-HT2A receptor; experiment: biochemical; assay type: binding; conditions: for Selectivity (binding ratios) 5-HT2A : 5-HT1A / Selectivity (binding ratios) 5-HT2A : 5-HT2B / Selectivity (binding ratios) 5-HT2A : 5-HT2C: ratio of Ki values
hSERT [10] = molecular target: T6, hSERT; experiment: Release of preloaded [^3H]5-HT from HEK-hSERT cells; assay type: cell-based; conditions: for % maximum release, hSERT [^3H]5-HT: relative to maximum release induced by METH (0.3–1 mM)
hDAT [11] = molecular target: T2, hDAT; experiment: Release of preloaded [^3H]DA from HEK-hDAT cells; assay type: cell-based; conditions: for % maximum release, hDAT [^3H]DA: relative to maximum release induced by METH (1–10 μM)
hSERT [12] = molecular target: T6, hSERT; experiment: Inhibition of [^3H]5-HT uptake by HEK-hSERT cells; assay type: cell-based
hNET [13] = molecular target: T1, hNET; experiment: cell-based
5-HT2B receptor [14] = molecular target: T5, 5-HT2B receptor; experiment: 5-HT2B receptor [^3H]5-HT binding
hDAT [15] = molecular target: T2, hDAT; experiment: Inhibition of [^3H]DA uptake by HEK-hDAT cells; assay type: cell-based
[16] = normalized to the maximal stimulation by 5-HT
[17] = EC50, 5-HT2A stimulation of IP-1 formation

T1 sequence (P23975 whole entry): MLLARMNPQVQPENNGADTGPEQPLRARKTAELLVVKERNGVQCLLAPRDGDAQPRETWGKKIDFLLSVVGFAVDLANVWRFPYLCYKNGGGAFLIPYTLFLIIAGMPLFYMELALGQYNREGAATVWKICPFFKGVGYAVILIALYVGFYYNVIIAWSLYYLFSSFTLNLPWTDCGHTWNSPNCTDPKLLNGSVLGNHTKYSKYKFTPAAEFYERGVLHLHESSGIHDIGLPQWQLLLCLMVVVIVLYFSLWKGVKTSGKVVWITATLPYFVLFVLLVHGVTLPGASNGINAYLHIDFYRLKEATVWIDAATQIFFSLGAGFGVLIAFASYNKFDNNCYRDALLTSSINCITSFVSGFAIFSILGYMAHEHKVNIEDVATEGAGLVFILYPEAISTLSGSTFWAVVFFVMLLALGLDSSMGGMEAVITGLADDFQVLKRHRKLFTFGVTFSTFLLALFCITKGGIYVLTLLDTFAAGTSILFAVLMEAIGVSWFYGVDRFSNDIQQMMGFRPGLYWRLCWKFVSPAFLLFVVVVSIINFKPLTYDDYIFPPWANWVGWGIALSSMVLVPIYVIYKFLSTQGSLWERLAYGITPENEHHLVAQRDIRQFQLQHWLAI
T5 sequence (P41595 whole entry): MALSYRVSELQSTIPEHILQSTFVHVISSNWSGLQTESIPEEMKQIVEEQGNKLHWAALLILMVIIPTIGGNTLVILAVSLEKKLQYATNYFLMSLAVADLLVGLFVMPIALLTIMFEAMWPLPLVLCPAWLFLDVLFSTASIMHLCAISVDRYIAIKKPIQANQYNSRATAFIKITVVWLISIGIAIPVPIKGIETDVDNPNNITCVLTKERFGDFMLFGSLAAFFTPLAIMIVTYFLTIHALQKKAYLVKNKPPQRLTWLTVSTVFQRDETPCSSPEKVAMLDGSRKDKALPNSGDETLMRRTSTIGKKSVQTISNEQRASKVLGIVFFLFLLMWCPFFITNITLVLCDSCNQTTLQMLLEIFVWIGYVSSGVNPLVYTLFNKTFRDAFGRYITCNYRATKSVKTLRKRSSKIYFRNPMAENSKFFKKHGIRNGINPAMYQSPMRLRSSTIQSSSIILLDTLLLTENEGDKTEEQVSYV
T2 sequence (Q01959 whole entry): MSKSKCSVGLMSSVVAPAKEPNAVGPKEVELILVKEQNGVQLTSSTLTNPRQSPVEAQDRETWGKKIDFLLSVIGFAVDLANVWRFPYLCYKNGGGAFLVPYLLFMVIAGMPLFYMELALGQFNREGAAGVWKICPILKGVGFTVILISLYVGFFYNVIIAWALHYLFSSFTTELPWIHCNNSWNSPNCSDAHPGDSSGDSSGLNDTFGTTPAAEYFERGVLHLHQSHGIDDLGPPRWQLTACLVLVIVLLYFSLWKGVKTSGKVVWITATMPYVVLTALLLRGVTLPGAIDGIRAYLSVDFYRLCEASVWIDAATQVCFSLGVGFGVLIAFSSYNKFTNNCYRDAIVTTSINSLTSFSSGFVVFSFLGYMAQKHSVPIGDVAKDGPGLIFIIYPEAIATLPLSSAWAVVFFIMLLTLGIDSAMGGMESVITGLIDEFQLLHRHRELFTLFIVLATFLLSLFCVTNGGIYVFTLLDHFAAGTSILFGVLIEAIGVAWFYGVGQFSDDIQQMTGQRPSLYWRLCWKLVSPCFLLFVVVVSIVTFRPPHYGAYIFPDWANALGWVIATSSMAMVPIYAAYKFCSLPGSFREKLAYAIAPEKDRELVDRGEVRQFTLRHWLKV
T3 sequence (P28223 whole entry): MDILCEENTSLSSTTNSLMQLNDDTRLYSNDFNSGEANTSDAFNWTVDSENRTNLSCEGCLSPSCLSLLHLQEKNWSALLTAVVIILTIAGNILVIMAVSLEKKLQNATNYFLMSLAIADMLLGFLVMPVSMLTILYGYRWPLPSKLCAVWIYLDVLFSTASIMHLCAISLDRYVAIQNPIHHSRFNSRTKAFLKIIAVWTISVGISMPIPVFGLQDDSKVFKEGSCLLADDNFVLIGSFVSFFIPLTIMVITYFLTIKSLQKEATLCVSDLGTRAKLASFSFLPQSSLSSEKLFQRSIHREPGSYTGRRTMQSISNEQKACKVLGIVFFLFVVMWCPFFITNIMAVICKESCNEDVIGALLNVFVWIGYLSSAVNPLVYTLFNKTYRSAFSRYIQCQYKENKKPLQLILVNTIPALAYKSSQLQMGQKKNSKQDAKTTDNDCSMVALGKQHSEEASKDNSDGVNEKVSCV
T6 sequence (P31645 whole entry): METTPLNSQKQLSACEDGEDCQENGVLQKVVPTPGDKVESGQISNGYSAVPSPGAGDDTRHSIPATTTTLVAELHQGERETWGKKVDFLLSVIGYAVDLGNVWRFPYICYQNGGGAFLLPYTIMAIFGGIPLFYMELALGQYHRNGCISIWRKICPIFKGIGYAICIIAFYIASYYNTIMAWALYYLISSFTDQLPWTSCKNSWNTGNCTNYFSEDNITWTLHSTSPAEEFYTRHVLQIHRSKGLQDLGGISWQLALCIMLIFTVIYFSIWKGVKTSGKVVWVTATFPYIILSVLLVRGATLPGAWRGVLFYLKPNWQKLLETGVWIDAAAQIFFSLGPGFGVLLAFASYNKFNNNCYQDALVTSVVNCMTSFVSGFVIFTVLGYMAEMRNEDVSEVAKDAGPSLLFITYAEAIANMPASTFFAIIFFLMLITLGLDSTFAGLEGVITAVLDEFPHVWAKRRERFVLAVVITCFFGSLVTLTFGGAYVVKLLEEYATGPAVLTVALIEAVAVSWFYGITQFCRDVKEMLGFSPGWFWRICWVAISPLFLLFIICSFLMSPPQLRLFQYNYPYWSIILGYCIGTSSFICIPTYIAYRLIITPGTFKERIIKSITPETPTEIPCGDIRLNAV

SMILES	Selectivity (functional ratios) 5-HT2A: 5-HT1A (5-HT2A receptor [3])	Selectivity (functional ratios) 5-HT2A: 5-HT2B (5-HT2A receptor [3])	Selectivity (functional ratios) 5-HT2A: 5-HT2C (5-HT2A receptor [3])	% maximum release, hNET [^3H]NE (hNET [6]) [%]	Selectivity (binding ratios) 5-HT2A : 5-HT1A (5-HT2A receptor [9])	Selectivity (binding ratios) 5-HT2A : 5-HT2B (5-HT2A receptor [9])	Selectivity (binding ratios) 5-HT2A : 5-HT2C (5-HT2A receptor [9])	% maximum release, hSERT [^3H]5-HT (hSERT [10]) [%]	% maximum release, hDAT [^3H]DA (hDAT [11]) [%]	Ki (hNET [1]) [nM]	Ki (hSERT [8]) [nM]	IC50 (hSERT [12]) [nM]	IC50 (hNET [13]) [nM]	Ki (hDAT [2]) [nM]	EC50 (5-HT2A receptor [3]; [17]) [nM]	Emax (5-HT2A receptor [3]) [%]	Ki (human 5-HT1A receptor [4]) [nM]	EC50 (human 5-HT1A receptor [5]) [nM]	Emax (human 5-HT1A receptor [5]) [%]	IC50 (hDAT [15]) [nM]	other results
COc1cc([N+](=O)[O-])c(OC)cc1CCNCc1ccccc1OC [25N-NBOMe]	9400	92	2.6	25 ± 15	15700	60	7.4	−0.25 ± 0.54	−0.89 ± 0.91												Ki (hNET [1]; read-out: Inhibition of [^125I]RTI-55 binding Ki, hNET, mean ± sem, HEK-hNET): 11300 ± 3500 nM; Ki (hDAT [2]; read-out: Inhibition of [^125I]RTI-55 binding Ki, hDAT, mean ± sem, HEK-hDAT): 37900 ± 4600 nM; % maximum stimulation, 5-HT2A stimulation of IP-1 formation (5-HT2A receptor [3]; [16]): 87.9 ± 3.4%; EC50 (5-HT2A receptor [3]; read-out: EC50, 5-HT2A stimulation of IP-1 formation): 0.51 ± 0.19 nM; Ki (human 5-HT1A receptor [4]; read-out: Inhibition of radioligand binding Ki, 5-HT1A [^3H]8OH-DPAT, mean ± sem, recombinant human 5-HT1A in HEK cells, agonist radioligand): 2260 ± 230 nM; % maximum stimulation, 5-HT1A stimulation of [^35S]GTPγS binding (human 5-HT1A receptor [5]; [16]): 35.6 ± 6.6%; EC50 (human 5-HT1A receptor [5]; read-out: EC50, 5-HT1A stimulation of [^35S]GTPγS binding, mean ± sem): 4800 ± 1800 nM; EC50 (hNET [6]; read-out: Drug-induced release of [^3H]neurotransmitter EC50, hNET [^3H]NE, mean ± sem, HEK-hNET): > 38000 nM; % maximum stimulation, 5-HT2B stimulation of IP-1 formation (5-HT2B receptor [7]; [16]): 57.6 ± 8.6%; EC50 (5-HT2B receptor [7]; read-out: EC50, 5-HT2B stimulation of IP-1 formation, mean ± sem): 47 ± 11 nM; Ki (hSERT [8]; read-out: Inhibition of [^125I]RTI-55 binding Ki, hSERT, mean ± sem, HEK-hSERT): 5810 ± 900 nM; % maximum stimulation, 5-HT2C stimulation of IP-1 formation (5-HT2C receptor; [16]): 99.4 ± 0.4%; EC50 (5-HT2C receptor; read-out: EC50, 5-HT2C stimulation of IP-1 formation, mean ± sem): 1.32 ± 0.27 nM; EC50 (hSERT [10]; read-out: Drug-induced release of [^3H]neurotransmitter EC50, hSERT [^3H]5-HT, mean ± sem, HEK-hSERT): > 100000 nM; EC50 (hDAT [11]; read-out: Drug-induced release of [^3H]neurotransmitter EC50, hDAT [^3H]DA, mean ± sem, HEK-hDAT): > 100000 nM
OC1(c2ccc(Cl)cc2)c2ccccc2C2=NCCN21 (centres unmarked) [Mazindol, reference compound]										11.6 ± 3.5	127 ± 39	69 ± 12	1.1 ± 0.3								
COc1cc(CCNCc2ccccc2OC)c(OC)cc1C [25D-NBOMe, 2-(2,5-dimethoxy-4-methylphenyl)-N-(2-methoxybenzyl)ethanamine]	3900	21	0.90	14.3 ± 8.5	20500	9.3	3.1	0.59 ± 0.24	0.75 ± 0.48	6700 ± 1300	1780 ± 280	1020 ± 78	1170 ± 140	34500 ± 4200	1.53 ± 0.1	95.1	4510 ± 730	5900 ± 1900	55	> 85000	EC50 (hNET [6]): > 33000 nM; EC50 (5-HT2B receptor [7]): 32.3 ± 6.8 nM; Emax (5-HT2B receptor [7]): 47.7%; Ki (5-HT2B receptor [14]): 2.05 ± 0.49 nM; EC50 (5-HT2C receptor): 1.37 ± 0.36 nM; Emax (5-HT2C receptor): 96.1%; Ki (5-HT2A receptor [9]): 0.22 ± 0.026 nM; EC50 (hSERT [10]): > 100000 nM; EC50 (hDAT [11]): > 100000 nM
COc1cc(CCNCc2ccccc2O)c(OC)cc1I [25I-NBOH, 2-(((4-iodo-2,5-dimethoxyphenethyl)amino)methyl)phenol]		146	3.1	16 ± 16	13100	11	6.1	−0.27 ± 0.40	−0.56 ± 0.35	4060 ± 650	1220 ± 210	1720 ± 250	629 ± 93	8500 ± 380	0.76 ± 0.26	87.5	2220 ± 590	37000 ± 13000	74	30700 ± 5000	EC50 (hNET [6]): > 100000 nM; EC50 (5-HT2B receptor [7]): 111 ± 13 nM; Emax (5-HT2B receptor [7]): 21.3%; Ki (5-HT2B receptor [14]): 1.91 ± 0.48 nM; EC50 (5-HT2C receptor): 2.38 ± 0.72 nM; Emax (5-HT2C receptor): 94%; Ki (5-HT2A receptor [9]): 0.169 ± 0.013 nM; EC50 (hSERT [10]): > 100000 nM; EC50 (hDAT [11]): > 100000 nM
NCCc1c[nH]c2ccc(O)cc12 [5-HT, Serotonin hydrochloride, reference compound]										392000 ± 10000			7200 ± 2500	375000 ± 83000						3360 ± 320	
